Here are results for one molecule from article PMC9316017, “Succinimido–Ferrocidiphenol Complexed with Cyclodextrins Inhibits Glioblastoma Tumor Growth In Vitro and In Vivo without Noticeable Adverse Toxicity” (Molecules, 2022).

Data set [1] is described as follows: Dissolution of the lyophilized complex in water. Type of data set: physicochemical. The settings on record: 25 °C. The protocol: To investigate the dissolution, an amount (5 mg) of the lyophilized SuccFerr:RAMEßCD complex was suspended in water. The suspension was incubated at 25 °C in a shaking-bath (200 strokes/min, Heito, France). One-milliliter aliquots were taken at various time intervals up to 24 h and centrifuged× 7200g, 5 min, (Denver Instruments, Bohemia, NY, USA). Each supernatant was analyzed by HPLC to assess the drug contents. The results are presented as mean ± SD of triplicate experiments. A dialysis was also realized under magnetic stirring with a 14,000 Da cut-off bag, containing 2 mL of an aqueous solution of 5 mg of SuccFerr:RAMEßCD and 498 mL of distilled water. Aliquots were taken and analyzed as previously described.

Data set [2] relates to fifteen molecularly diverse glioblastoma patient-derived cell lines (PDCLs). Set-up: method as in PMID 34638742. The settings on record: cited from earlier work.

Like-named read-outs stand apart in the source and are kept apart here.

As a reminder, the IC50 is the midpoint of a concentration-inhibition curve. Consider `O=C1CCC(=O)N1CCCC(=C(c1ccc(O)cc1)c1ccc(O)cc1)[c-]1cccc1.[Fe+2].c1cc[cH-]c1` [SuccFerr, N-[4-ferrocenyl,5-5-bis (4-hydroxyphenyl)-pent-4-enyl]-succinimide], for which the “dissolution in distilled water” value in data set [1] was “cannot be dissolved and was undetectable”. For the same molecule, the “IC50 ratio (highest/lowest)” value in data set [2] is reported as “≈ 3000”. The concentration for half-maximal inhibition (IC50) in data set [2] (read-out: highest IC50 across the PDCLs) is approximately 30 µM; in data set [2] (read-out: lowest IC50 across the PDCLs), 0.01 µM.
